Measured values published in article PMC9000336, “Development of Bicyclo[3.1.0]hexane-Based A3 Receptor Ligands: Closing the Gaps in the Structure–Affinity Relationships” (Molecules, 2022).

These molecules were tested against T1, hA2B receptor (Homo sapiens, UniProt P29275) (assay: Radioligand displacement assay, human adenosine A2B receptor ([3H]PSB-603, CHO-spap-hA2BR membranes)). Details: not given.
T1 construct: expressed in transfected cells; host or cells: CHO-spap cells (CHO-spap-hA2BR), from S. J. Dowell (GlaxoSmithKline); membrane preparation
T1 sequence (P29275 1-332): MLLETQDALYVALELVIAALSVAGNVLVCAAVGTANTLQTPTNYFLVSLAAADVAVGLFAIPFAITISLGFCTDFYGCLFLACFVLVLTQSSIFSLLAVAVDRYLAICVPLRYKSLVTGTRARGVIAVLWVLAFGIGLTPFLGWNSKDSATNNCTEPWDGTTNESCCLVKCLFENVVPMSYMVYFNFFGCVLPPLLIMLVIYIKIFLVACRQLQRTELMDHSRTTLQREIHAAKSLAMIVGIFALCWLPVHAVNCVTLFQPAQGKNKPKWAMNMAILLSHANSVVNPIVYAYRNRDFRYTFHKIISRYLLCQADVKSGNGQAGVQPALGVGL
Type: binding
Method: Human embryonic kidney 293 cells stably expressing the human adenosine A2A receptor (HEK293hA2AR) were kindly provided by Dr. J. Wang (Biogen/IDEC, Cambridge, MA, USA), CHO-spap cells stably expressing the wild-type (WT) hA2B receptor (CHO-spap-hA2BR) were kindly provided by S. J. Dowell (GlaxoSmithKline, Brentfort, UK).
Chinese hamster ovary cells stably expressing the […] and a reporter gene, the secreted placental alkaline phosphatase, (CHO-spap-hA2BR) were grown in DMEM and Ham’s F12 medium (1:1) supplemented with 10% (v/v) newborn calf serum, 100 µg/mL streptomycin, 100 IU/mL penicillin, 1 mg/mL G418, and 0.4 mg/mL hygromycin at 37 °C and 5% CO2.
All cells were grown to 80–90% confluency and detached from plates by scraping them into 5 mL phosphate-buffered saline. Detached cells were collected and centrifuged at 200 g for 5 min. Pellets derived from 100 15 cm Ø plates were pooled and resuspended in 70 mL of ice-cold 50 mM tris(hydroxymethyl)aminomethane (Tris)-HCl buffer, pH 7.4. A Heidolph Diax 900 homogenizer was used to homogenize the cell suspension. Membranes and the cytosolic fraction were separated by centrifugation at 100,000 g in a Beckman Optima LE-80 K ultracentrifuge (Beckman Coulter, Fullerton, CA, USA) at 4 °C for 20 min. The pellet was resuspended in 35 mL of the Tris-HCl buffer, and the homogenization and centrifugation steps were repeated. Tris-HCl buffer (25 mL) was used to resuspend the pellet, and adenosine deaminase (ADA) was added (0.8 U/mL) to break down endogenous adenosine. Membranes were stored in 250 µL and 500 µL aliquots at −80 °C. Total protein concentrations were measured using the bicinchoninic acid (BCA) method.
A2B Receptor: Membrane aliquots containing 30 µg (CHO-spap-hA2BR) total protein were incubated in a total volume of 100 µL assay buffer (0.1% CHAPS in 50 mM TrisHCl, pH 7.4) at 25 °C for 2 h. […] Nonspecific binding was determined in the presence of 10 µM ZM241385. Incubations were terminated by rapid vacuum filtration to separate the bound and free radioligand through prewetted 96-well GF/B filter plates using a PerkinElmer Filtermate-harvester (Perkin Elmer, Groningen, the Netherlands). Filters were subsequently washed 12 times with ice-cold 0.1% BSA in 50 mM Tris-HCl, pH 7.4.
The plates of all four adenosine receptor assays were dried at 55 °C after which MicroscintTM-20-cocktail was added (Perkin Elmer, Groningen, The Netherlands).
All experimental data were analyzed using the non-linear regression curve fitting program GraphPad Prism 7.0 (GraphPad Software Inc., San Diego, CA, USA). IC50 values obtained from competition displacement binding data were converted into Ki values using the Cheng–Prusoff equation.
With `Nc1ncnc2c1ncn2[C@H]1[C@H](O)[C@H](O)[C@]2(CO)C[C@H]12` [Compound 36, (N)-methanocarba adenosine] the “affinity at the A2B subtype” value was “no affinity”.

Same assay, conditions: footnote a: test compound 1 µM; n = 3
`CSc1nc(N)c2ncn([C@H]3[C@H](O)[C@H](O)[C@]4(Cn5cc(CC(=O)O)nn5)C[C@H]34)c2n1` [Compound 45, 2-(1-{[(1R,2R,3S,4R,5S)-4-(6-Amino-2-methylthio-9H-purin-9-yl)-2,3-dihydroxybicyclo[3.1.0]hex-1-yl]methyl}-1H-1,2,3-triazol-4-yl)acetic acid] was tested, and the “A2B displacement at 1 µM” value was 5% ^a.
For `CSc1nc(N)c2ncn([C@H]3[C@H](O)[C@H](O)[C@]4(Cn5cc(CCC(=O)O)nn5)C[C@H]34)c2n1` [Compound 46], the “A2B displacement at 1 µM” value was 1% ^a.
For `CSc1nc(N)c2ncn([C@H]3[C@H](O)[C@H](O)[C@]4(Cn5cc(C(=O)O)nn5)C[C@H]34)c2n1` [Compound 44, 1-{[(1R,2R,3S,4R,5S)-4-(6-Amino-2-methylthio-9H-purin-9-yl)-2,3-dihydroxybicyclo[3.1.0]hex-1-yl]methyl}-1H-1,2,3-triazole-4-carboxylic acid], the “A2B displacement at 1 µM” value was 2% ^a.

Same assay, conditions: footnote a: tested at 1 µM; n = 3; read-out: A2B Ki (bound, footnote a)
With `CCN(CC)CC.CSc1nc(N)c2ncn([C@H]3[C@H](O)[C@H](O)[C@]4(CNc5c(O)c(=O)c5=O)C[C@H]34)c2n1` [Compound 47, Triethylammonium 2-{[(1R,2R,3S,4R,5S)-4-(6-Amino-2-methylthio-9H-purin-9-yl)-2,3-dihydroxybicyclo[3.1.0]hex-1-yl]methyl}amino-3,4-dioxocyclobut-1-en-1-olate] the Ki was > 1 µM.
With `COC(=O)Cc1cn(C[C@@]23C[C@@H]2[C@@H](n2cnc4c(N)nc(SC)nc42)[C@H](O)[C@@H]3O)nn1` [Compound 41, Methyl 2-(1-{[(1R,2R,3S,4R,5S)-4-(6-amino-2-methylthio-9H-purin-9-yl)-2,3-dihydroxybicyclo[3.1.0]hex-1-yl]methyl}-1H-1,2,3-triazol-4-yl)acetate] the Ki was > 1 µM.
In the case of `CCN(CC)CC.CSc1nc(N)c2ncn([C@H]3[C@H](O)[C@H](O)[C@]4(CNS(=O)(=O)CC(=O)O)C[C@H]34)c2n1` [Compound 48, Triethylammonium 2-(N-{[(1R,2R,3S,4R,5S)-4-(6-amino-2-methylthio-9H-purin-9-yl)-2,3-dihydroxybicyclo[3.1.0]hex-1-yl]methyl}sulfamoyl)acetate], the Ki is reported as > 1 µM.

Same assay, conditions: n = 3; [3H]PSB-603; read-out: A2B Ki ± SEM
With `Nc1cc(Cl)c2ncn([C@H]3[C@H](O)[C@H](O)[C@]4(CO)C[C@H]34)c2n1` [Compound 11, (1R,2R,3S,4R,5S)-4-(5-Amino-7-chloro-3H-imidazo[4,5-b]pyridin-3-yl)-1-(hydroxymethyl)bicyclo[3.1.0]hexane-2,3-diol] the Ki was > 10 µM.
With `OC[C@@]12C[C@@H]1[C@@H](n1cnc3c(NCc4ccccc4)cc(Cl)nc31)[C@H](O)[C@@H]2O` [Compound 13, (1R,2R,3S,4R,5S)-4-[7-(Benzylamino)-5-chloro-3H-imidazo[4,5-b]pyridin-3-yl]-1-(hydroxymethyl)bicyclo[3.1.0]hexane-2,3-diol] the Ki was > 10 µM.
In the case of `CSc1nc(N(Cc2ccccc2)Cc2ccccc2)c2ncn([C@H]3[C@H](O)[C@H](O)[C@]4(CO)C[C@H]34)c2n1` [Compound 30, (1R,2R,3S,4R,5S)-4-[6-(Dibenzylamino)-2-methylthio-9H-purin-9-yl]-1-(hydroxymethyl)bicyclo[3.1.0]hexane-2,3-diol], the Ki is reported as > 10 µM.
With `Nc1cc(Cl)nc2c1ncn2[C@H]1[C@H](O)[C@H](O)[C@]2(CO)C[C@H]12` [Compound 16, (1R,2R,3S,4R,5S)-4-(7-Amino-5-chloro-3H-imidazo[4,5-b]pyridin-3-yl)-1-(hydroxymethyl)bicyclo[3.1.0]hexane-2,3-diol] the Ki was > 10 µM.
For `OC[C@@]12C[C@@H]1[C@@H](n1cnc3c(Cl)cc(Cl)nc31)[C@H](O)[C@@H]2O` [Compound 12, (1R,2R,3S,4R,5S)-4-(5,7-Dichloro-3H-imidazo[4,5-b]pyridin-3-yl)-1-(hydroxymethyl)bicyclo[3.1.0]hexane-2,3-diol], the Ki was > 10 µM.
`COc1ccc(CNc2cc(Cl)nc3c2ncn3[C@H]2[C@H](O)[C@H](O)[C@]3(CO)C[C@H]23)cc1` [Compound 15, (1R,2R,3S,4R,5S)-4-{5-Chloro-7-[(4-methoxy)benzylamino]-3H-imidazo[4,5-b]pyridin-3-yl}-1-(hydroxymethyl)bicyclo[3.1.0]hexane-2,3-diol] was tested, and the Ki was > 10 µM.
`CSc1nc(N)c2ncn([C@H]3[C@H](O)[C@H](O)[C@]4(Cn5cc(CO)nn5)C[C@H]34)c2n1` [Compound 39, (1R,2R,3S,4R,5S)-4-(6-Amino-2-methylthio-9H-purin-9-yl)-1-{[4-(hydroxymethyl)-1H-1,2,3-triazol-1-yl]methyl}bicyclo[3.1.0]hexane-2,3-diol] was tested, and the Ki was > 10 µM.
For `OC[C@@]12C[C@@H]1[C@@H](n1cnc3c(N(Cc4ccccc4)Cc4ccccc4)nc(Cl)nc31)[C@H](O)[C@@H]2O` [Compound 27, (1R,2R,3S,4R,5S)-4-[6-(Dibenzylamino)-2-chloro-9H-purin-9-yl]-1-(hydroxymethyl)bicyclo[3.1.0]hexane-2,3-diol], the Ki was > 10 µM.
`Nc1ncnc2c1ncn2[C@H]1[C@H](O)[C@H](O)[C@]2(CO)C[C@H]12` [Compound 36, (N)-methanocarba adenosine] was tested, and the Ki was > 10 µM.
`CSc1nc(N)c2ncn([C@H]3[C@H](O)[C@H](O)[C@]4(Cn5cc(CN)nn5)C[C@H]34)c2n1` [Compound 43, (1R,2R,3S,4R,5S)-4-(6-Amino-2-methylthio-9H-purin-9-yl)-1-{[4-(aminomethyl)-1H-1,2,3-triazol-1-yl]methyl}bicyclo[3.1.0]hexane-2,3-diol] was tested, and the Ki was > 10 µM.
In the case of `CSc1nc(N(Cc2ccccc2)Cc2ccccc2)c2ncn([C@H]3[C@H](O)[C@H](O)[C@]4(CCl)C[C@H]34)c2n1` [Compound 31, (1S,2R,3S,4R,5S)-4-[6-(Dibenzylamino)-2-methylthio-9H-purin-9-yl]-1-(chloromethyl)bicyclo[3.1.0]hexane-2,3-diol], the Ki is reported as > 10 µM.
With `CSc1cc(N)c2ncn([C@H]3[C@H](O)[C@H](O)[C@]4(CO)C[C@H]34)c2n1` [Compound 17, (1R,2R,3S,4R,5S)-4-(7-Amino-5-methylthio-3H-imidazo[4,5-b]pyridin-3-yl)-1-(hydroxymethyl)bicyclo[3.1.0]hexane-2,3-diol] the Ki was > 10 µM.
`CSc1cc(NCc2ccccc2)c2ncn([C@H]3[C@H](O)[C@H](O)[C@]4(CO)C[C@H]34)c2n1` [Compound 14, (1R,2R,3S,4R,5S)-4-[7-(Benzylamino)-5-methylthio-3H-imidazo[4,5-b]pyridin-3-yl]-1-(hydroxymethyl)bicyclo[3.1.0]hexane-2,3-diol] was tested, and the Ki was > 10 µM.
`COC(=O)c1cn(C[C@@]23C[C@@H]2[C@@H](n2cnc4c(N)nc(SC)nc42)[C@H](O)[C@@H]3O)nn1` [Compound 40, Methyl 1-{[(1R,2R,3S,4R,5S)-4-(6-amino-2-methylthio-9H-purin-9-yl)-2,3-dihydroxybicyclo[3.1.0]hex-1-yl]methyl}-1H-1,2,3-triazole-4-carboxylate] was tested, and the Ki was > 10 µM.
For `COC(=O)CCc1cn(C[C@@]23C[C@@H]2[C@@H](n2cnc4c(N)nc(SC)nc42)[C@H](O)[C@@H]3O)nn1` [Compound 42, Methyl 3-(1-{[(1R,2R,3S,4R,5S)-4-(6-amino-2-methylthio-9H-purin-9-yl)-2,3-dihydroxybicyclo[3.1.0]hex-1-yl]methyl}-1H-1,2,3-triazol-4-yl)propanoate], the Ki was > 10 µM.

Same assay, conditions: test compound 10 µM; n = 3
For `OC[C@@]12C[C@@H]1[C@@H](n1cnc3c(N(Cc4ccccc4)Cc4ccccc4)ncnc31)[C@H](O)[C@@H]2O` [Compound 26, (1R,2R,3S,4R,5S)-4-[6-(Dibenzylamino)-9H-purin-9-yl]-1-(hydroxymethyl)bicyclo[3.1.0]hexane-2,3-diol], the “A2B displacement at 10 µM” value was 12%.
